Laboratory results reported in a melting point compilation (Tetko et al.; mined from patent text by program, amines drawn as free bases though some values may be those of a salt).

With `O=C(CCNc1c(C(=O)O)[nH]c2cc(Cl)ccc12)c1ccc(F)cc1` the melting point was 248 to 250 °C.
For `Cc1cc(Cl)c2c(O)c3c(=O)[nH][nH]c(=O)c3nc2c1`, the melting point was 197 to 199 °C.
`CN1C(=O)CC[C@]2(C)c3ccc(-c4ccc([N+](=O)[O-])cc4)cc3CC[C@@H]12` gave a melting point of 59 to 60 °C.
Work on `Nc1cc(-c2c(-c3ccc(Cl)cc3)nc3ccc(N4CC5CNCC5C4)nn23)ccn1` (stereo not given) yielded a melting point of 267 to 270 °C.
In the case of `Cc1ccnc2nc(NS(=O)(=O)c3ccccc3Cl)nn12`, the melting point is reported as 268 to 269 °C.
In the case of `Cc1c(C)c(N2CCN(c3ccc(CN(C)C)cc3)CC2)c(C)c2c1OC(C)(C)C2`, the melting point is reported as 134 to 138 °C.
For `COCC1CCCN1S(=O)(=O)c1cc2c(cc1Cl)N1CCCN=C1C2=O` (stereo not given), the melting point was 127 to 130 °C.
Compound `COC(=O)c1cccn2c(C(=O)c3ccc(N4C[C@H](CNC(C)=O)OC4=O)cc3)cnc12` has a melting point of 202 to 204 °C.
`NC(=O)NCCSc1ccc2nccn2n1` showed a melting point of 216 to 217 °C.
`C=CCN1C(=O)c2cccc(C)c2Oc2ncccc21` showed a melting point of 58 to 60 °C.
`Cc1c(C)c2c(c(C)c1O)CC[C@@](C)(CO)O2` showed a melting point of 124 to 128 °C.
For `Cc1c(OCC(F)(F)F)ccnc1CSc1nc2ccccc2n1NC(=O)OC(C)(C)C`, the melting point was 153 to 155 °C.
`CCNc1ncn(CC)c2nc(C3CC3)nc1-2` showed a melting point of 103 to 105 °C.
For `O=C(CCC(=O)N1CCC[C@H]1C(=O)O)c1ccc(Cl)cc1`, the melting point was 137 to 138 °C.
Compound `O=C(Cc1ccc(Oc2ccccc2)cc1)NC1(C(=O)O)Cc2ccc(-c3ccc(Cl)cc3)cc2C1` (stereo not given) has a melting point of 227 to 228 °C.
In the case of `O=S1(=O)c2cccc3c(Cl)ccc(c23)N1CCCN1CC=C(c2ccccc2)CC1`, the melting point is reported as 135 °C.
For `C=CCc1c(O)c(Cl)c(Cl)c2c1CC(C)(c1ccccc1)C2=O` (stereo not given), the melting point was 125 °C.
Work on `O=C(O)c1cc(CC(C(=O)O)C(=O)O)c2ccccn2c1=O` yielded a melting point greater than 250 °C.
Work on `C=CC(=O)Nc1cccc2c(=O)c(C)c(-c3ccccc3)oc12` yielded a melting point of 229 to 230 °C.
For `COC(=O)[C@@H]1C[C@H]1C(=O)O` (relative stereo), the melting point was 46 to 47 °C.
Compound `C#CC1(O)CCC2C3CCC4=CC(=O)CCC4C3C(=CF)CC21C` (stereo not given) has a melting point of 188 to 190 °C.
In the case of `N#Cc1c(OCC#CI)nsc1SC(F)F`, the melting point is reported as 106 to 107 °C.
In the case of `COc1c(Br)c(O)c(Br)c2nc(-c3ccc(O)cc3)oc12`, the melting point is reported as 246 to 248 °C.
With `COc1ccc(N2CCN(c3c(C)c(C)c4c(c3C3CC3)CC(C)(C)O4)CC2)cc1` the melting point was 121 to 122 °C.
Compound `CCOc1nn(-c2ccc(C(F)(F)F)cn2)cc1CCOc1ccc(CCC(=O)O)c(C)c1` has a melting point of 117 to 119 °C.
`CCOC(=O)c1cnn2c1nc(N1CCCCC1)c1cnc3c(cnn3CC)c12` gave a melting point of 183 to 184 °C.
For `Fc1ccc2[nH]c3c(ccc4cc[nH]c43)c2c1`, the melting point was greater than 250 °C.
Compound `CCOc1ccc(CC2SC(=N)NC2=O)cc1OCC` (stereo not given) has a melting point of 171 to 172 °C.
`Cn1ncnc1COc1nn2c(-c3ccccc3F)nncc2c1C(C)(C)C` showed a melting point of 128 °C.
With `C=CC(=O)c1ccc(OCC(=O)O)c(Cl)c1Cl` the melting point was 111 to 113 °C.
Work on `CCCCCCCCCCCCCCCCCCCCCC(=O)NN` yielded a melting point of 117 °C.
`COP(=O)(CC(=O)COc1ccc(Cl)cn1)OC` gave a melting point of 37 to 40 °C.
For `O=C(OCc1ccccc1)N1CCOc2cc(Oc3cc(Cl)ncn3)ccc21`, the melting point was 110 °C.
In the case of `COC(=O)c1ccc(-c2cc(-c3ccc4c(c3)C(C)(C)CCC4(C)C)[nH]n2)cc1`, the melting point is reported as 155 to 156 °C.
Compound `COc1ccc(-c2cc3cc(F)c(F)cc3[nH]2)cc1NCc1ccc(O)c([N+](=O)[O-])c1` has a melting point of 195 to 196 °C.
`CCCc1ccc(-c2nnc(SC)nn2)cc1` showed a melting point of 78 to 79 °C.
`C1=C(c2ccccc2)CCN(CC2CCC=C(c3ccccc3)C2)C1` (stereo not given) gave a melting point of 94 to 100 °C.
`COc1cc(OC)c2c(=O)oc(=O)[nH]c2c1` gave a melting point of 287 to 293 °C.
Work on `Cc1cc(-c2cccc(Cl)c2C=O)ccc1F` yielded a melting point of 74 to 79 °C.
With `COc1ccccc1NCN1C(=O)CN(C)C1=O` the melting point was 93 to 96.5 °C.
In the case of `N#CC(C(=O)c1ccc(C(F)(F)F)cc1S(=O)(=O)C1CCCCC1)C(=O)C1CC1` (stereo not given), the melting point is reported as 60 to 62 °C.
`COc1cc(-c2nc(N)sc2SCC2CCCCC2)c(OC)cc1C` showed a melting point of 111 to 112 °C.
`CC(CN(O)C(N)=O)OCc1ccco1` (stereo not given) gave a melting point of 59 to 62 °C.
`COc1cc(C(C)C)c(Oc2c(N)nc(N)nc2C2COC(C)(C)OC2)cc1I` gave a melting point of 167 to 168 °C.
`Cc1ccccc1C(Oc1cc(OCc2ccsc2)ccc1C#N)C(=O)O` (racemic) gave a melting point of 146 to 148 °C.
With `O=C(NC1CN2CCC1CC2)c1cccc2c1CCC2` (racemic) the melting point was 158 °C.
With `Cc1cc2c(c(C3=NNC(=O)CC3)c1)OCC(=O)N2` the melting point was 266 to 270 °C.
In the case of `Cc1c(C)c2ccc(OCCCc3ccccc3)cc2oc1=O`, the melting point is reported as 104 °C.
Work on `CCc1ccc(CC2N=C(c3ccc(F)cc3)c3cc(Cl)ccc3N(C)C2=O)cc1CC` (stereo not given) yielded a melting point of 54 to 56 °C.
With `O=c1[nH]c(=O)n2c(c1Cc1ccccc1)SCCC2` the melting point was 227 to 229 °C.
With `N#Cc1cccc(-c2cc(-c3ccc(C#N)cc3Cl)no2)c1` the melting point was 221 to 223 °C.
Compound `COC(=O)c1ccc(CCN(C)CCCC(C#N)(c2cccc(C(=O)OC)c2)C(C)C)cc1` (stereo not given) has a melting point of 108 to 112 °C.
With `O=C(O)c1ccc(COc2ccccc2)nc1C(=O)O` the melting point was 270 °C.
With `Cc1cc(CC2(Cc3ccnc(C)c3)c3ccccc3-c3ncccc32)ccn1` the melting point was 177 to 179 °C.
`COc1cc(OC)nc(NC(=O)NS(=O)(=O)N=CN(CSC)OC)n1` showed a melting point of 165 to 167 °C.
For `CCN1C(=O)CC(C)(C)c2ccc(C(=O)O)cc21`, the melting point was 202 to 204 °C.
Work on `Nc1ccc(Oc2ccc(O)c(C(=O)O)c2)cc1` yielded a melting point of 223 to 224 °C.
Work on `O=C(O)c1ccc(NC(=O)c2ccncc2)cc1` yielded a melting point of 362 to 365 °C.
Work on `CCCCc1nc2ccn(Cc3ccc([N+](=O)[O-])cc3)c(=O)c2n1Cc1ccc([N+](=O)[O-])cc1` yielded a melting point of 142 to 143 °C.
For `O=C(O)CCc1nc(-c2ccccc2)cc2ccccc12`, the melting point was 160 °C.
For `NS(=O)(=O)Oc1cccc([N+](=O)[O-])c1`, the melting point was 118 to 120 °C.
`CCOc1ccc2c(c1)n(CCN1CCOCC1)c(=O)n2S(=O)(=O)c1ccc(OC)cc1OC` showed a melting point of 146 to 149 °C.
For `N#Cc1c(N)sc2ccccc2c1=O`, the melting point was 295 to 299 °C.
Work on `CCOC(=O)c1c(C)cc(C(=O)O)c(NC=O)c1C` yielded a melting point of 144 to 146 °C.
`CCCN(CCC)C(=O)C(CCC(=O)NC)NC(=O)C=Cc1ccco1` (stereo not given) gave a melting point of 112 to 113 °C.
Compound `CC(=O)N(C(=O)N(C)C)c1snc(C(C)C)c1C#N` has a melting point of 128 to 130 °C.
`COc1ccc2c(c1)cc(-c1nnn(Cc3cccc(OCc4ccc5ccccc5n4)c3)n1)c(=O)n2CCCCl` showed a melting point of 150 to 152 °C.
`CC1(Cn2c(=O)oc3ccccc32)Cn2cc([N+](=O)[O-])nc2O1` (stereo not given) showed a melting point of 223 to 224 °C.
`COc1ccc(Sc2ccccc2/C=C/C(=O)NCCCCO)cc1` showed a melting point of 134 to 136 °C.
In the case of `O=c1ccn(-c2cc3[nH]c(=O)c(=O)[nH]c3cc2[N+](=O)[O-])cc1F`, the melting point is reported as greater than 300 °C.
In the case of `O=C1NCc2c1cc1ccc3c(c1c2-c1ccc2c(c1)OCO2)OCC3`, the melting point is reported as 275 to 277 °C.
Compound `N#Cc1cc(-n2ccc(-c3ccc(F)cc3)n2)cc(S(N)(=O)=O)c1` has a melting point of 184 to 185 °C.
`CC1(C)CC(C)(C)CC(CCCc2ccccc2)(NC(=O)CCl)C1` showed a melting point of 83 to 85 °C.
`COCCC1CCN(c2ccc(C#N)c3ccccc23)CC1` showed a melting point of 95 to 96 °C.
`COC(=O)C1=C(C)NC(C(OC)OC)=C(C(=O)OC)C1c1cccc([N+](=O)[O-])c1` (stereo not given) showed a melting point of 99 to 100 °C.
`Oc1ccc(-c2cc3c(O)cc(O)cc3o2)cc1` showed a melting point of 216 to 217 °C.
In the case of `Cc1ccc(OCCCCCCN2CCN(c3nccs3)CC2)cc1`, the melting point is reported as 37 to 39 °C.
Work on `COc1ccc(C(=O)c2cc3c(c(Cl)c2Cl)OC(C(=O)O)C3)cc1` (stereo not given) yielded a melting point of 187 °C.
`OC(CNC(=S)NCc1ccc(Cl)cc1)(Cn1cncn1)c1ccc(Cl)cc1Cl` (stereo not given) gave a melting point of 209 to 210 °C.
`CCOC(=O)C1=C(C)NC(C)=C(C(=O)OCC)C1c1c(C)sc2ccccc12` gave a melting point of 191 to 193 °C.
In the case of `O=C(C[C@@H](CCc1ccccc1)C(=O)O)OCC(Cl)(Cl)Cl`, the melting point is reported as 59 to 61 °C.
With `C(#CCN(Cc1ccccc1)Cc1ccccc1)CN(Cc1ccccc1)Cc1ccccc1` the melting point was 105 to 106 °C.
Compound `COC(C)(C)CNC(=O)c1cccc(-c2cccc3cc(Cc4cc(F)cc(Cl)c4)sc23)c1` has a melting point of 89 to 90 °C.
Compound `O=c1ccc2ccc(OCCCN3CCN(c4ccccc4)CC3)cc2o1` has a melting point of 117 to 118 °C.
For `O=C1COc2ccc(C3=Cc4cccnc4SC3c3ccccc3)cc2N1` (stereo not given), the melting point was 242 to 244 °C.
In the case of `CS(=O)(=O)Nc1ccc(/C=C\COCCCCCCNCC(O)c2cc(O)cc(O)c2)cc1` (stereo not given), the melting point is reported as 79 to 82 °C.
Work on `C/C(=N\O)c1ccc(SSc2ccc(/C(C)=N/O)cn2)nc1` yielded a melting point of 200 to 201 °C.
Work on `CN1CCC(=C2c3cc(Cl)ccc3CCn3ncnc32)CC1` yielded a melting point of 176 °C.
Compound `CONC(=O)Nc1ccc(-c2sc3c(c2CN(C)Cc2ccccc2)c(=O)n(-c2ccccc2)c(=O)n3Cc2c(F)cccc2F)cc1` has a melting point of 204 to 205 °C.
`Oc1ccc(C(=C2SCCCS2)c2ccccc2)cc1` showed a melting point of 135 to 137 °C.
With `CCCOCCOc1ccc(OCC(O)CNCCNC(=O)N2CCOCC2)cc1` (stereo not given) the melting point was 88 °C.
With `CCCc1nc2c(N)nc3cc(OCc4cscn4)ccc3c2s1` the melting point was 218 to 220 °C.
In the case of `CC1(C)NC(=O)N(CC(CS(=O)(=O)c2ccc(-c3ccc(Cl)cc3)cc2)C(=O)O)C1=O` (stereo not given), the melting point is reported as 242 to 245 °C.
For `O=c1[nH]c2ccccc2n1CCN1CCN(c2ccc(O)c(C(F)(F)F)c2)CC1`, the melting point was greater than 250 °C.
Compound `O=C(CCC(=O)N(CCCOc1ccc(C(=O)O)cc1)c1ccc(Cl)cc1)Nc1ccc(Cl)cc1` has a melting point of 197 to 201 °C.
Work on `O=C(Cn1c(-c2ccccc2)ncc(NC(=O)OCc2ccc(C(=O)O)cc2)c1=O)NC(Cc1ccccc1)C(=O)C(F)(F)F` (stereo not given) yielded a melting point of 202 to 207 °C.
For `N#CCc1cc(Cl)c(C(=O)c2ccc(Cl)cc2)[nH]1`, the melting point was 194 to 197 °C.
Compound `O=C1NC(=O)C2(N1)C(=O)N(Cc1ccc(Cl)c(Cl)c1)c1ccc(Cl)cc12` (stereo not given) has a melting point of 257 to 259 °C.
In the case of `Cc1c(F)cccc1NC(=O)c1ccc(CN2C(=O)C3(COc4cc5c(cc43)CCO5)c3ccccc32)cc1` (stereo not given), the melting point is reported as 143 to 144 °C.
Compound `CN1C(=O)c2c(-c3ccccc3)noc2CC1c1ccccc1` (stereo not given) has a melting point of 108 to 111 °C.
